Data reported in the supplement of paper PMC10307832.

Tests used:
Assay in all cases: relative viability (nuclei count vs DMSO), 5 days (fraction); higher = more cells survive
201T = tested on: 201T
How it was run: (§1)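 A single step with final 0.05% Triton X-100, 1% formaldehyde and 1 ug/ml Hoechst fixed the cells and stained nuclei 5 days after treatment. Lung cancer cell lines in 1536-well plates had been treated by pin tool the day after seeding with one drug alone or a fixed anchor-drug dose plus five library-drug doses (not always all listed) in √10 steps, and nuclei were counted on 4× images. Relative viability is the ratio of nuclei in treated wells to nuclei in vehicle wells, taken as the median of duplicate plates.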

BEN = tested on: BEN
How it was run: as §1

EMC-BAC-2 = tested on: EMC-BAC-2
How it was run: as §1

HARA = tested on: HARA
How it was run: as §1

LCLC-103H = tested on: LCLC-103H
How it was run: as §1

LOU-NH91 = tested on: LOU-NH91
How it was run: as §1

NCI-H1395 = tested on: NCI-H1395
How it was run: as §1

NCI-H1666 = tested on: NCI-H1666
How it was run: as §1

NCI-H1993 = tested on: NCI-H1993
How it was run: as §1

NCI-H2009 = tested on: NCI-H2009
How it was run: as §1

NCI-H2023 = tested on: NCI-H2023
How it was run: as §1

NCI-H2087 = tested on: NCI-H2087
How it was run: as §1

NCI-H2126 = tested on: NCI-H2126
How it was run: as §1

NCI-H2347 = tested on: NCI-H2347
How it was run: as §1

NCI-H23 = tested on: NCI-H23
How it was run: as §1

NCI-H3122 = tested on: NCI-H3122
How it was run: as §1

NCI-H441 = tested on: NCI-H441
How it was run: as §1

NCI-H596 = tested on: NCI-H596
How it was run: as §1

NCI-H647 = tested on: NCI-H647
How it was run: as §1

NCI-H650 = tested on: NCI-H650
How it was run: as §1

NCI-H727 = tested on: NCI-H727
How it was run: as §1

NCI-H838 = tested on: NCI-H838
How it was run: as §1

HCC-44 = tested on: HCC-44
How it was run: as §1

CC(C)Oc1cc(Nc2nc(N[C@@H](C)c3ccc(F)cn3)ncc2Cl)n[nH]1 [AZ23] + COc1cc2c(Oc3ccc(NC(=O)C4(C(=O)Nc5ccc(F)cc5)CC4)cc3F)ccnc2cc1OCCCN1CCOCC1 [Foretinib] (partner 0.25 µM)
relative viability (201T; first compound 0.03162 µM): 1.28
relative viability (201T; first compound 0.3162 µM): 1.13
relative viability (BEN; first compound 0.01 µM): 0.625
relative viability (BEN; first compound 0.03162 µM): 0.807
relative viability (BEN; first compound 0.3162 µM): 0.772
relative viability (EMC-BAC-2; first compound 0.01 µM): 1.12
relative viability (EMC-BAC-2; first compound 0.03162 µM): 1.06
relative viability (EMC-BAC-2; first compound 0.3162 µM): 0.989
relative viability (HARA; first compound 0.03162 µM): 1.04
relative viability (HARA; first compound 0.3162 µM): 0.783
relative viability (LCLC-103H; first compound 0.01 µM): 0.729
relative viability (LCLC-103H; first compound 0.03162 µM): 0.817
relative viability (LCLC-103H; first compound 0.3162 µM): 0.78
relative viability (LOU-NH91; first compound 0.01 µM): 0.941
relative viability (LOU-NH91; first compound 0.03162 µM): 0.975
relative viability (LOU-NH91; first compound 0.3162 µM): 0.927
relative viability (NCI-H1395; first compound 0.03162 µM): 1.02
relative viability (NCI-H1395; first compound 0.3162 µM): 1
relative viability (NCI-H1666; first compound 0.01 µM): 0.992
relative viability (NCI-H1666; first compound 0.03162 µM): 1.05
relative viability (NCI-H1666; first compound 0.3162 µM): 0.918
relative viability (NCI-H1993; first compound 0.01 µM): 0.66
relative viability (NCI-H1993; first compound 0.03162 µM): 0.725
relative viability (NCI-H1993; first compound 0.3162 µM): 0.753
relative viability (NCI-H2009; first compound 0.01 µM): 1.23
relative viability (NCI-H2009; first compound 0.03162 µM): 1.26
relative viability (NCI-H2009; first compound 0.3162 µM): 1.23
relative viability (NCI-H2023; first compound 0.03162 µM): 0.88
relative viability (NCI-H2023; first compound 0.3162 µM): 0.924
relative viability (NCI-H2087; first compound 0.01 µM): 1.49
relative viability (NCI-H2087; first compound 0.03162 µM): 1.09
relative viability (NCI-H2087; first compound 0.3162 µM): 1.02
relative viability (NCI-H2126; first compound 0.01 µM): 1.05
relative viability (NCI-H2126; first compound 0.03162 µM): 1.21
relative viability (NCI-H2126; first compound 0.3162 µM): 1.19
relative viability (NCI-H2347; first compound 0.01 µM): 0.85
relative viability (NCI-H2347; first compound 0.03162 µM): 0.986
relative viability (NCI-H2347; first compound 0.3162 µM): 1.15
relative viability (NCI-H23; first compound 0.03162 µM): 1.07
relative viability (NCI-H23; first compound 0.3162 µM): 0.596
relative viability (NCI-H3122; first compound 0.01 µM): 1.15
relative viability (NCI-H3122; first compound 0.03162 µM): 0.918
relative viability (NCI-H3122; first compound 0.3162 µM): 0.981
relative viability (NCI-H441; first compound 0.01 µM): 1.52
relative viability (NCI-H441; first compound 0.03162 µM): 0.854
relative viability (NCI-H441; first compound 0.3162 µM): 0.967
relative viability (NCI-H596; first compound 0.01 µM): 0.89
relative viability (NCI-H596; first compound 0.03162 µM): 0.877
relative viability (NCI-H596; first compound 0.3162 µM): 0.737
relative viability (NCI-H647; first compound 0.01 µM): 1.24
relative viability (NCI-H647; first compound 0.03162 µM): 1.24
relative viability (NCI-H647; first compound 0.3162 µM): 1.44
relative viability (NCI-H650; first compound 0.01 µM): 0.988
relative viability (NCI-H650; first compound 0.03162 µM): 1.01
relative viability (NCI-H650; first compound 0.3162 µM): 1
relative viability (NCI-H727; first compound 0.01 µM): 0.789
relative viability (NCI-H727; first compound 0.03162 µM): 0.852
relative viability (NCI-H727; first compound 0.3162 µM): 1.1
relative viability (NCI-H838; first compound 0.01 µM): 1.24
relative viability (NCI-H838; first compound 0.03162 µM): 1.14
relative viability (NCI-H838; first compound 0.3162 µM): 0.994

Clc1ccc(Nc2nnc(Cc3ccncc3)c3ccccc23)cc1 [Vatalanib] + CS(=O)(=O)CCNCc1ccc(-c2ccc3ncnc(Nc4ccc(OCc5cccc(F)c5)c(Cl)c4)c3c2)o1 [Lapatinib] (partner 2 µM)
relative viability (201T; first compound 0.04 µM): 1.02
relative viability (201T; first compound 0.1265 µM): 0.989
relative viability (201T; first compound 0.4 µM): 1.04
relative viability (201T; first compound 1.265 µM): 1.05
relative viability (201T; first compound 4 µM): 1.07
relative viability (BEN; first compound 0.04 µM): 0.79
relative viability (BEN; first compound 0.1265 µM): 0.554
relative viability (BEN; first compound 0.4 µM): 0.806
relative viability (BEN; first compound 1.265 µM): 0.657
relative viability (BEN; first compound 4 µM): 0.767
relative viability (EMC-BAC-2; first compound 0.04 µM): 0.905
relative viability (EMC-BAC-2; first compound 0.1265 µM): 0.884
relative viability (EMC-BAC-2; first compound 0.4 µM): 0.919
relative viability (EMC-BAC-2; first compound 1.265 µM): 0.832
relative viability (EMC-BAC-2; first compound 4 µM): 0.885
relative viability (HARA; first compound 0.04 µM): 0.583
relative viability (HARA; first compound 0.1265 µM): 0.694
relative viability (HARA; first compound 0.4 µM): 0.746
relative viability (HARA; first compound 1.265 µM): 0.731
relative viability (HARA; first compound 4 µM): 0.948
relative viability (HCC-44; first compound 0.04 µM): 1.01
relative viability (HCC-44; first compound 0.1265 µM): 0.941
relative viability (HCC-44; first compound 0.4 µM): 1.02
relative viability (HCC-44; first compound 1.265 µM): 0.986
relative viability (HCC-44; first compound 4 µM): 0.986
relative viability (LOU-NH91; first compound 0.04 µM): 0.763
relative viability (LOU-NH91; first compound 0.1265 µM): 0.741
relative viability (LOU-NH91; first compound 0.4 µM): 0.802
relative viability (LOU-NH91; first compound 1.265 µM): 0.689
relative viability (LOU-NH91; first compound 4 µM): 0.664
relative viability (NCI-H1395; first compound 0.04 µM): 1.16
relative viability (NCI-H1395; first compound 0.1265 µM): 0.929
relative viability (NCI-H1395; first compound 0.4 µM): 0.948
relative viability (NCI-H1395; first compound 1.265 µM): 1.01
relative viability (NCI-H1395; first compound 4 µM): 0.864
relative viability (NCI-H1666; first compound 0.04 µM): 0.728
relative viability (NCI-H1666; first compound 0.1265 µM): 0.749
relative viability (NCI-H1666; first compound 0.4 µM): 0.863
relative viability (NCI-H1666; first compound 1.265 µM): 0.529
relative viability (NCI-H1666; first compound 4 µM): 0.545
relative viability (NCI-H1993; first compound 0.04 µM): 0.909
relative viability (NCI-H1993; first compound 0.1265 µM): 0.721
relative viability (NCI-H1993; first compound 0.4 µM): 0.828
relative viability (NCI-H1993; first compound 1.265 µM): 0.755
relative viability (NCI-H1993; first compound 4 µM): 0.747
relative viability (NCI-H2009; first compound 0.04 µM): 1.03
relative viability (NCI-H2009; first compound 0.1265 µM): 0.868
relative viability (NCI-H2009; first compound 0.4 µM): 1.1
relative viability (NCI-H2009; first compound 1.265 µM): 0.894
relative viability (NCI-H2009; first compound 4 µM): 0.919
relative viability (NCI-H2023; first compound 0.04 µM): 0.749
relative viability (NCI-H2023; first compound 0.1265 µM): 0.725
relative viability (NCI-H2023; first compound 0.4 µM): 1.05
relative viability (NCI-H2023; first compound 1.265 µM): 0.681
relative viability (NCI-H2023; first compound 4 µM): 0.736
relative viability (NCI-H2087; first compound 0.04 µM): 1.12
relative viability (NCI-H2087; first compound 0.1265 µM): 1.02
relative viability (NCI-H2087; first compound 0.4 µM): 1.15
relative viability (NCI-H2087; first compound 1.265 µM): 1.09
relative viability (NCI-H2087; first compound 4 µM): 1.12
relative viability (NCI-H2126; first compound 0.04 µM): 0.787
relative viability (NCI-H2126; first compound 0.1265 µM): 0.823
relative viability (NCI-H2126; first compound 0.4 µM): 0.773
relative viability (NCI-H2126; first compound 1.265 µM): 0.744
relative viability (NCI-H2126; first compound 4 µM): 0.71
relative viability (NCI-H2347; first compound 0.04 µM): 1.01
relative viability (NCI-H2347; first compound 0.1265 µM): 0.858
relative viability (NCI-H2347; first compound 0.4 µM): 0.931
relative viability (NCI-H2347; first compound 1.265 µM): 0.907
relative viability (NCI-H2347; first compound 4 µM): 0.833
relative viability (NCI-H23; first compound 0.04 µM): 0.963
relative viability (NCI-H23; first compound 0.1265 µM): 1.15
relative viability (NCI-H23; first compound 0.4 µM): 1.3
relative viability (NCI-H23; first compound 1.265 µM): 0.993
relative viability (NCI-H23; first compound 4 µM): 1.08
relative viability (NCI-H3122; first compound 0.04 µM): 1.01
relative viability (NCI-H3122; first compound 0.1265 µM): 1.01
relative viability (NCI-H3122; first compound 0.4 µM): 1.01
relative viability (NCI-H3122; first compound 1.265 µM): 0.977
relative viability (NCI-H3122; first compound 4 µM): 0.97
relative viability (NCI-H596; first compound 0.04 µM): 1.07
relative viability (NCI-H596; first compound 0.1265 µM): 1.22
relative viability (NCI-H596; first compound 0.4 µM): 1.14
relative viability (NCI-H596; first compound 1.265 µM): 1.03
relative viability (NCI-H596; first compound 4 µM): 1.16
relative viability (NCI-H647; first compound 0.04 µM): 1.12
relative viability (NCI-H647; first compound 0.1265 µM): 1.07
relative viability (NCI-H647; first compound 0.4 µM): 1.26
relative viability (NCI-H647; first compound 1.265 µM): 1.05
relative viability (NCI-H647; first compound 4 µM): 1.04
relative viability (NCI-H650; first compound 0.04 µM): 0.694
relative viability (NCI-H650; first compound 0.1265 µM): 0.784
relative viability (NCI-H650; first compound 1.265 µM): 0.784
relative viability (NCI-H650; first compound 4 µM): 0.911
relative viability (NCI-H727; first compound 0.04 µM): 0.806
relative viability (NCI-H727; first compound 0.1265 µM): 0.717
relative viability (NCI-H727; first compound 0.4 µM): 0.9
relative viability (NCI-H727; first compound 1.265 µM): 0.709
relative viability (NCI-H727; first compound 4 µM): 1.02
relative viability (NCI-H838; first compound 0.04 µM): 1.06
relative viability (NCI-H838; first compound 0.1265 µM): 0.944
relative viability (NCI-H838; first compound 0.4 µM): 1.09
relative viability (NCI-H838; first compound 1.265 µM): 0.841
relative viability (NCI-H838; first compound 4 µM): 0.961
